# Patent publication US20240173273A1 (priority 2021, published 2024)
# How the values were obtained:
# Type in all cases: cell-based
# SARS-COV-2 [1] = tested on: SARS-COV-2
# [2] = tested on: inflammatory response induced by SARS-COV-2; assay: Inflammatory and immune-sensing gene expression in infected Calu-3a cells; details: data not shown
# [3] = tested on: HECT E3 ligases, ACE2, TMPRSS2; assay: Expression of HECT E3 ligases, ACE2 and TMPRSS2 in Vero E6 and Calu-3a cells (RT-qPCR)
# SARS-COV-2 [4] = assay: microbe, parasite or virus in culture
# SARS-COV-2 [5] = tested on: SARS-COV-2; remark: listed apart in the source
structure (smiles),measurement,setting,value
"CC(C)(CO)[C@@H](O)C(=O)NCCC(=O)NCCSSCCNC(=O)CCNC(=O)[C@H](O)C(C)(C)CO [pantethine, (2R,2′ R)—N,N′-(3,12-Dioxo-7,8-dithia-4,11-diazatetradecane-1,14-diyl)bis(2,4-dihydroxy-3,3-dimethylbutanamide)]",infection of Calu-3a cells by SARS-COV-2,SARS-COV-2 [1],reduced significantly and dose dependently
same,inflammatory response induced by SARS-COV-2,[2],reduced
same,ACE2 and TMPRSS2 expression,[3],no significant effect
same,HECT E3 ligases expression,[3],no effects
same,infection-induced increase of TMPRSS2 expression,[3],inhibited
same,HECT E3 ligase-increase induced by SARS-CoV-2 infection,"[3]; infected cells in vitro, data not shown",decreased
same,infection of Vero E6 cells by SARS-COV-2,SARS-COV-2 [4],reduced significantly and dose dependently
same,inhibition at 100 µM,"SARS-COV-2 [4]; Severe acute respiratory syndrome coronavirus 2, Vero C1008, 72 h, 100 μM, read-out: inhibition of the replication of SARS-COV-2 (Spike protein staining)",~76%
same,inhibition at 1000 µM,"SARS-COV-2 [4]; Severe acute respiratory syndrome coronavirus 2, Vero C1008, 72 h, 1000 μM, read-out: inhibition of the replication of SARS-COV-2 (Spike protein staining)",~98%
same,expression of the viral Spike and Nucleocapsid proteins within infected cells,SARS-COV-2 [5],reduce significantly
